US20050065066A1, “Stabilised insulin compositions” (priority 2002, published 2005)
Like-named read-outs stand apart in the source and are kept apart here.

Tests used:
[1] = Chemical stability of insulin formulations by RPC (reverse phase chromatography); type: physicochemical; conditions: formulated human insulin, 3 Zn2+ per hexamer
Protocol: (§1) The chemical stability of insulin formulations of the invention was characterised by HPLC (RPC, reverse phase chromatography and SEC, size exclusion chromatography). As reference, insulin formulated without ligands of the invention but with 0.3% DMSO was also investigated and shown below: [drawing]
FIG. 10. Reverse phase chromatography of formulated human insulin with 3 Zn^2+ per hexamer, 30 mM phenol, 150 mM mannitol, 3 mM phosphoric acid, sodium hydroxide to pH 7.4 and 0.3% DMSO corresponding to 3 ligands per hexamer at start (upper panel) and after storage for 2 weeks at 37° C. (lower panel): Preservatives before 20 min., “hydrophilic derivatives” (desamido-insulins) 20 min to main top insulin, “hydrophobic derivatives 1” main top to 64 min., and “hydrophobic derivatives 2” (insulin dimers) after 64 min.
(§2) Storage in HPLC 1 ml vials at 45° C. (5 d), 37° C. (2 w), 30° C. (6 w), 25° C. (10 w), 15° C. (30 w) gave about the same increase of transformation products correlating to an increase in reactions constants of a factor 3-4 per 10 degree.
RPC (reverse phase chromatography) on Waters SymmetryShield RP8 column, 150×4.6 mm and 3.5 μm, eluted by A: 0.2 M sodium sulfate+0.04 M sodium phosphate pH 7.2+10% acetonitrile and isocratically (i) or a gradient (g) of B: 70% acetonitrile [minutes/% B(i/g): 0/19, 21/24(i)(sudden change), 51/24(i), 81/39(g), 81.1/0(i), 82.3/19(i)] at flow of 0.9 mL/min and 30° C.

[2] = Disappearance rate from the subcutaneous depot following injection in pigs; type: in vivo; conditions: disappearance assay
Excerpt: Formulations of the present invention were characterized by the disappearance rate from the subcutaneous depot following injection in pigs. Formulations of B28 Asp human insulin containing A14Tyr(^125I) B28 Asp human insulin were followed with an external γ-counter (Ribel et al., The pig as a model for subcutaneous absorption in man. In: Serrano-Ritos & Lefebre (Eds.): Diabetes (1985) proceedings ot the 12th congress of the international diabetes federation, Madrid, Spain, 1985 (Excerpta Medica, Amsterdam (1986) 891-896. Formulations of Insulin Aspart (0.6 mM, U100) containing 0.3 mM Zn^2+, 30 mM phenol, 2 mM phosphate buffer, and 1.6% glycerol, pH 7.4, were compared with the corresponding formulations containing 0.3 mM of the ligands shown below: where T50% is the time when 50% ot the A14Tyr(^125I) B28 Asp insulin has disappeared from the site of injection and Kd is the affinity of the ligand as measured by the TZD-assay described in “Analytical methods” below.

[3] = target: T1, metal site of insulin R6 hexamers (Homo sapiens, UniProt P01308); test: TZD-assay: fluorescence based displacement assay; type: binding; conditions: affinity towards the zinc site, TZD-assay; read-out: Kd(app)
T1 construct: human insulin comprising additional amino acids, i.e. more than 51 amino acids
T1 sequence (P01308 25-54 limits assumed): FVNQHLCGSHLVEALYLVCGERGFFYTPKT
T1 sequence (P01308 90-110 limits assumed): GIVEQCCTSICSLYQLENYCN
Protocol: The binding affinity of ligands to the metal site of insulin R6 hexamers are measured in a fluorescense based displacement assay. The fluorescence of 5-(4-dimethylaminobenzylidene)thiazolidine-2,4-dione (TZD) which is a ligand for the metal site of insulin R6 is quenched upon displacement from the metal site to the solution. Titration of a ligand to a stock solution of insulin R6 hexamers with this compound mounted in the metal site allows the binding affinity of these ligands to be determined measuring the fluorescence at 455 nm upon excitation at 410 nm.
Stock solution: 0.02 mM human insulin, 0.007 mM Zn-acetate, 40 mM phenol, 0.01 mM TZD in 50 mM tris buffer adjusted to pH=8.0 with NaOH/ClO4^−.
The ligand is dissolved in DMSO to a concentration of 5 mM and added in aliquots to the stock solution to final concentrations of 0-250 µM.
Fluorescence measurements were carried out on a Perkin Elmer Spectrofluorometer LS50B. T main absorption band was excited at 410 nm and emission was detected at 455 nm. The resolution was 10 nm and 2.5 nm for excitation and emission, respectively.
This equation is fitted to the datapoints ΔF(455 nm))=ΔFmax* [ligand]free/(KD(app)*(1+[TZD]/KTZD)+[ligand]free)) KD(app) is the apparent dissociation constant and Fmax is the fluorescence at maximal ligand concentration. The value of KTZD is measured separately to 230 nM
Two different fitting-procedures can be used. One in which both parameters, KD(app) and Fmax, are adjusted to best fit the data and a second in which the value of Fmax is fixed (Fmax=1) and only KD(app) is adjusted. The given data are from the second fitting procedure. The Solver module of Microsoft Excel can be used to generate the fits from the data points.

[4] = Chemical stability of insulin formulations by SEC (size exclusion chromatography); type: physicochemical; conditions: formulated human insulin, 3 Zn2+ per hexamer
Protocol: as §1, §2
SEC (size exclusion chromatography) on Waters insulin HMWP column, 300×7.8 mm, eluted by 15:20:65 of acetic acid: acetonitrile: arginine 1 g/L at flow of 1 mL/min and ambient temperature.

[5] = target: T1, metal site of insulin R6 hexamers; conditions: taken from Huang et al., 1997; read-out: K4H3N; cited from earlier work

## O=C(O)c1cc2cc(Br)ccc2cc1O [Example 533, 7-bromo-3-hydroxy-2-naphthoic acid]
[1]; 5° predicted
  hphil (hydrophilic derivatives, desamido-insulins): (0.55) % formed/year
  hphob1 (hydrophobic derivatives 1): (0.19) % formed/year
  hphob2 (hydrophobic derivatives 2, insulin dimers): (0.079) % formed/year
[1]; 15° C.
  hphil (hydrophilic derivatives, desamido-insulins): 1.80 % formed/year
  hphob1 (hydrophobic derivatives 1): 0.85 % formed/year
  hphob2 (hydrophobic derivatives 2, insulin dimers): 0.42 % formed/year
[1]; 25° C.
  hphil (hydrophilic derivatives, desamido-insulins): 4.06 % formed/year
  hphob1 (hydrophobic derivatives 1): 5.67 % formed/year
  hphob2 (hydrophobic derivatives 2, insulin dimers): 1.46 % formed/year
[1]; 30° C.
  hphil (hydrophilic derivatives, desamido-insulins): 6.76 % formed/year
  hphob1 (hydrophobic derivatives 1): 6.42 % formed/year
  hphob2 (hydrophobic derivatives 2, insulin dimers): 2.25 % formed/year
[1]; 37° C.
  hphil (hydrophilic derivatives, desamido-insulins): 12.5 % formed/year
  hphob1 (hydrophobic derivatives 1): 22.4 % formed/year
  hphob2 (hydrophobic derivatives 2, insulin dimers): 7.02 % formed/year
[1]; 45° C.
  hphil (hydrophilic derivatives, desamido-insulins): 30.7 % formed/year
  hphob1 (hydrophobic derivatives 1): 62.1 % formed/year
  hphob2 (hydrophobic derivatives 2, insulin dimers): 23.4 % formed/year
[2]
  effect on insulin aspart disappearance from subcutaneous injection site: no effect
[3]
  Kd: 0.383 µM
[4]; 5° predicted
  dimer: (0.087) % formed/year
[4]; 15° C.
  dimer: 0.45 % formed/year
[4]; 25° C.
  dimer: 1.61 % formed/year
[4]; 30° C.
  dimer: 2.86 % formed/year
[4]; 37° C.
  dimer: 7.02 % formed/year
[4]; 45° C.
  dimer: 26.3 % formed/year

## O=C1NC(=O)/C(=C/c2cccc3ccccc23)S1 [Example 68, 5-Naphthalen-1-ylmethylenethiazolidine-2,4-dione]
[2]
  effect on insulin aspart disappearance from subcutaneous injection site: no effect
[3]
  Kd: 0.023 µM

## O=C(O)/C=C/c1ccc(/C=C2\SC(=O)NC2=O)cc1 [Example 462]
[1]; 5° predicted
  hphil (hydrophilic derivatives, desamido-insulins): (0.293) % formed/year
  hphob1 (hydrophobic derivatives 1): (0.336) % formed/year
  hphob2 (hydrophobic derivatives 2, insulin dimers): (0.062) % formed/year
[1]; 15° C.
  hphil (hydrophilic derivatives, desamido-insulins): 1.02 % formed/year
  hphob1 (hydrophobic derivatives 1): 1.28 % formed/year
  hphob2 (hydrophobic derivatives 2, insulin dimers): 0.38 % formed/year
[1]; 25° C.
  hphil (hydrophilic derivatives, desamido-insulins): 2.60 % formed/year
  hphob1 (hydrophobic derivatives 1): 6.14 % formed/year
  hphob2 (hydrophobic derivatives 2, insulin dimers): 0.78 % formed/year
[1]; 30° C.
  hphil (hydrophilic derivatives, desamido-insulins): 4.07 % formed/year
  hphob1 (hydrophobic derivatives 1): 4.42 % formed/year
  hphob2 (hydrophobic derivatives 2, insulin dimers): 1.65 % formed/year
[1]; 37° C.
  hphil (hydrophilic derivatives, desamido-insulins): 9.88 % formed/year
  hphob1 (hydrophobic derivatives 1): 19.5 % formed/year
  hphob2 (hydrophobic derivatives 2, insulin dimers): 4.68 % formed/year
[1]; 45° C.
  hphil (hydrophilic derivatives, desamido-insulins): 20.4 % formed/year
  hphob1 (hydrophobic derivatives 1): 43.8 % formed/year
  hphob2 (hydrophobic derivatives 2, insulin dimers): 17.5 % formed/year
[2]
  effect on insulin aspart disappearance from subcutaneous injection site: no effect
[3]
  Kd: 0.058 µM
[4]; 5° predicted
  dimer: (0.048) % formed/year
[4]; 15° C.
  dimer: 0.28 % formed/year
[4]; 25° C.
  dimer: 1.09 % formed/year
[4]; 30° C.
  dimer: 2.17 % formed/year
[4]; 37° C.
  dimer: 6.24 % formed/year
[4]; 45° C.
  dimer: 21.2 % formed/year

## O=C(O)c1ccc([N+](=O)[O-])c(O)c1 [Example 4H3N, 3-hydroxy-4-nitro benzoic acid]
[5]
  Kd: 50 µM

## O=C(O)c1ccc(Cn2c3ccccc3c3cc(-c4nn[nH]n4)ccc32)cc1 [Example 738, 9-(4-Carboxybenzyl)-3-(2H-tetrazol-5-yl)-9H-carbazole]
[2]
  effect on insulin aspart disappearance from subcutaneous injection site: no effect
[3]
  Kd: 0.171 µM

## Cc1ccccc1Cn1c2ccccc2c2cc(-c3nn[nH]n3)ccc21 [Example 756, 9-(2-Methylbenzyl)-3-(2H-tetrazol-5-yl)-9H-carbazole]
[2]
  effect on insulin aspart disappearance from subcutaneous injection site: no effect
[3]
  Kd: 0.003 µM
